According to patent US5942522A, “Antiviral compounds and antihypertensive compounds” (Schering Corporation, priority 1997, dated 1999):
pIC50: −log10 of the molar value. Converted amounts (≈) assume the structure as drawn. Like-named read-outs stand apart in the source and are kept apart here. Blank lines part the entries; values can stand above or below the molecule they belong to.

What was measured:
HSV-2 = details: cited from earlier work
HSV-1 = details: cited from earlier work
[1] = Compound toxicity assay: inhibition of HeLa cell translation (3H-leucine incorporation); type: cell-based; details: human; Table II; HeLa cells; read-out: Cytotoxicity 3H-LEU assay IC50
Method: (§1) HeLa and Vero cell cultures were maintained in Eagles Minimal Essential Medium (EMEM) which was supplemented with glutamine, penicillin, streptomycin and 10% fetal calf serum (10% EMEM). Stock cultures of HSV-2 (strain MS available from ATCC VR-540) were grown in and harvested from Vero cells. Viral stocks were titered in Vero cells according to established procedures.
HeLa cells were treated with inhibitory compound for 24 hours, after which levels of translational activity were assayed.
For assay of translational activity, HeLa cultures were grown to 80% confluency in 96 well microtiter plates, treated with appropriate concentrations of compound in 2% EMEM during an overnight incubation at 37° C., then rinsed with HBSS and overlaid with […] of 2% EMEM containing 8 uCi of tritiated leucine (^3 H-LEU, […], Amersham Corp., Arlington Heights, Ill.). After a 1 hour incubation at 36.5°C., the cells were rinsed twice with phosphate buffered saline (PBS) and lysed in 400 ul/well of 1×PBS, 0.5% sodium dodecyl sulphate (SDS). After a 10 min incubation at 36.5° C., the contents of the well were transferred to a well in a Millititer HA microfiltration plate (Millipore Corp., Bedford, Mass.). The TCA insoluble proteins were precipitated onto the filter disc by a 10 min fixation with 5% TCA, followed by filtration under vacuum and three 10 minute rinses with 95% ethanol. The filters were dried at room temperature, cut from the milltitier plate and transferred to scintillation vials. TCA precipitable counts were assayed in 5 ml of Scintisol (Isolab, Akron, Ohio). The inhibitory activity of a compound was plotted versus the concentration and an IC50 value (that concentration of the compound required to decrease cellular translational activity by 50%) was derived for each compound.

HSV-2, strain MS = assay: Prophylactic guinea pig model of HSV infection; type: in vivo; details: 60 mg/kg s.c. (test compounds) T.I.D., 10 days, first dose 24 h before infection; for MSL (Maximum Lesion score): scale of 1-4
Method: The in vivo assessment of anti-HSV efficacy was determined in the prophylactic guinea pig model of HSV infection described by Stansberry et al (1982). Dosing of guinea pigs comprised an initial treatment with test compound given 24 hours prior to virus infection and subsequent administration of the compound every eight hours (T.I.D.) for a total of 10 days. Test compounds were administered subcutaneously in 0.5% buffered methyl celluslose at a dose of 60 mg per kg body weight of the animal. Animals were monitored daily for the development of genital lesions and neurological symptomology, both of which were recorded and compared to the results obtained with parallel groups which received placebo or acyclovir treatment. Efficacy was evaluated for each compound by scoring the ability of the compound to ameliorate genital lesions produced by infection with HSV-2, strain MS, expressed as Maximum Lesion Scores (MLS) on a scale of 1 (least lesions) to 4 (severe lesions).

HSV-2 (strain MS) = assay: HSV-β-Gal assay: transient expression of beta galactosidase in transfected HeLa cells superinfected with HSV-2; type: cell-based; details: 24 h
Method: as §1
Plasmid pON 245^ori- contains the promoter of the HSV-1 thymidine kinase (tk) gene located immediately 5'of the E. coli lac Z gene. In this arrangement, the tk promoter controls transcription from the bacterial gene in transient expression assays. Additionally, an SV40 polyadenylation signal is present at the 3' end of the lac Z gene to allow for the efficient translation of the mRNA in eucaryotic cells. The expression of beta galactosidase in a transient assay using pON 245^ori- is dependent upon superinfection of the transfected cells with HSV. […] For example see U.S. application Ser. No. 07/435,491 filed Sep. 5, 1989, the disclosure of which is incorporated herein by reference thereto.
HeLa cells were seeded into 96 well microtiter plates and allowed to grow to 80% confluency (approximately 35000 cells/well). One half microgram of plasmid pON 245^ori- DNA was introduced into the cells of each well by the […] precipitation technique (Grahman and Van der Eb, 1973). Four to six hours later, the cells were rinsed with hank's Balanced Salt Solution (HBSS), overlaid with 10% EMEM and incubated at 37° C. At 24 hours post-transfection, cells were rinsed, overlaid with 10% EMEM again and re-incubated at 37° C. At 48 hours post-transfection, cells were rinsed and overlaid with either EMEM containing 2% fetal calf serum (2% EMEM), 2% EMEM containing HSV-2 (strain MS, Multiplicity of Infection [moi]=5 pfu/cell) or 2% EMEM containing HSV-2 and the appropriate concentration of Schering compound to be tested. Twenty-four hours later, the cells were harvested and assayed for beta galactosidase activity as described below.
All determinations of beta galactosidase activity were performed in 96 well microtiter plates. The intracellular level of beta galactosidase activity in each well was determined from cell lysates of the monolayer cultures. Aliquots were assayed by incubation in the presence of beta galactosidase substrate, 4-methylumbelliferyl-β-D-galactoside (MUG, 125 ug/ml, Sigma), for 2 hours. The generation of fluorescent product was quantified on a Microfluor microfluorimeter (Dynatech) after addition of 0.1M glycine, pH 10.3 (Spaete and Mocarski, 1985). The inhibitory activity of a compound was plotted versus the concentration and an IC50 value (the concentration of compound required to reduce beta glactosidase expression by 50%) was obtained for each compound tested.

[2] = target: T1, cGMP phosphodiesterase (cGMP-PDE) (Bos taurus, UniProt Q28156); assay: Inhibition of cGMP phosphodiesterase in vitro; type: biochemical, bovine; details: 1 μM 3H-cGMP, pH 7.5, 25 min, room temperature
T1 construct: is a homogeneous enzyme obtained from bovine lung; from tissue; host or cells: bovine lung

HeLa cells = assay: Compound toxicity assay: inhibition of HeLa cell translation (3H-leucine incorporation); type: cell-based; details: Homo sapiens, Table II^1, read-out: Cytoxicity 3H-LEU assay IC50
herpes virus = details: added to lidocaine or lidocaine hydrochloride; cited from earlier work
[3] = Blood pressure in conscious spontaneously hypertensive rats (SHR); type: in vivo
Method: The ability of the compounds to lower blood pressure can be assessed in vivo in conscious spontaneously hypertensive rats (SHR). SHR are purchased from Taconic Farms, Germantown, N.Y. and are approximately 16-18 weeks old when anesthetized with ether. The caudal ventral tail) artery is cannulated with polyethylene tubing (PE50) and blood pressure and heart rate are recorded as described by Baum, T. et. al, J. Cardiovasc. Pharmacol. Vol 5, pp. 665-667, (1983). Rats are placed into pastic cylindrical cages where they rapidly recover consciousness. Blood pressure and heart rate are allowed to stabilize for approximately 90 minutes prior to compound administration. Compounds are administered orally as solutions or suspensions in 0.4% aqueous methylcellulose vehicle via a feeding needle. The compound or 0.4% aqueous methylcellulose vehicle are given in a volume of 4 ml/kg to SHRs that had been fasted overnight. Alternatively,compounds are administered intravenously. The compound is solubilized with a minimum amount of an organic solvent such as ethanol or dimethylsulfoxide and given in physiological saline. Activity is expressed as the fall in mean blood pressure (MBP) in millimeters of mercury (mm Hg). Compound-induced changes are compared with the changes in an appropriate placebo group.

[4] = Human alphaherpesvirus 2, Table II^1, HeLa cells, HSV-2 strain MS, read-out: Anti-HSV activity HSV-β-Gal assay IC50

Compound: CCN(CC)CC(=O)Nc1c(C)cccc1C [lidocaine, 2-(diethylamino)-N-(2,6-dimethylphenyl)acetamide]
- antiviral activity in cell culture (HSV-2): antiviral agent
- antiviral activity in cell culture (HSV-1): antiviral agent

- IC50 (HSV-2 (strain MS); Human alphaherpesvirus 2, Table II, HeLa cells, HSV-2 strain MS, read-out: Anti-HSV activity, HSV-β-GAL assay IC50): < 3 µg/mL
- pIC50 ([2]; Table VI): 5.22
Compound: CCCCCCn1c(=O)c(CO)c(OC)c2cc(C)ccc21 [Compound 9, 1-Hexyl-3-Hydroxymethyl-4-Methoxy-6-Methyl-2(1H)-Quinolinone]
- CC50 at 24 h [1]: 25 µg/mL (≈ 82.4 µM)
- Neurological dysfunction (percentage animals developing loss of bladder/hindlimb control) (HSV-2, strain MS): 44%
- MSL (Maximum Lesion score) (HSV-2, strain MS): 1.44

- IC50 (HSV-2 (strain MS); [4]): 9.8 µg/mL (≈ 32.9 µM)
Compound: Cc1c(OC(=O)c2cccn2C)ccc2c(N)cc(=O)oc12 [Compound 69, 4-Amino-7-(N-Methyl-Pyrrol-2-Carbonyloxy)-8-Methyl-Benzopyran-2-one]
- IC50 (HeLa cells): 100 µg/mL (≈ 335 µM)

- pIC50 ([2]; Table VI): 5.52
Compound: CCCCCCn1c(=O)c(C(=O)OCC)c(OC)c2cc(C)ccc21 [Compound 28, 1-hexyl-3-ethoxycarbonyl-4-methoxy-6-methyl-2(1H)-quinolinone]

- IC50 (HSV-2 (strain MS); [4]): 15.5 µg/mL (≈ 54.5 µM)
Compound: Cc1c(OC(=O)c2ccc[nH]2)ccc2c(N)cc(=O)oc12 [Compound 70, 4-Amino-7-(Pyrrol-2-carbonyloxy)-8-Methyl-Benzopyran-2-one]
- IC50 (HeLa cells): 74 µg/mL (≈ 260 µM)

Compound: Nc1nc2c(ncn2COCCO)c(=O)[nH]1 [Acyclovir, 9-[(2-hydroxyethoxy)methyl]guanine, reference compound]
- Neurological dysfunction (percentage animals developing loss of bladder/hindlimb control) (HSV-2, strain MS): 44%
- MSL (Maximum Lesion score) (HSV-2, strain MS): 1.61

Compound: CC(C)(CO)[C@@H](O)C(=O)NCCCO [dexpanthenol]
- enhancement of antiviral activity of lidocaine or lidocaine hydrochloride (herpes virus): significantly enhances

Compound: CC(C)(CO)[C@@H](O)C(=O)NCCC(=O)O [pantothenic acid]
- enhancement of antiviral activity of lidocaine or lidocaine hydrochloride (herpes virus): significantly enhances

- pIC50 ([2]; Table VI): 5.40
Compound: CCOC(=O)c1c(OCCN(C)C)c2cc(C)ccc2n(Cc2ccccc2)c1=O [Compound 27]
- MBP (fall in mean blood pressure) ([3]; 25 mpk p.o.): 19 mm of Hg
- MBP (fall in mean blood pressure) ([3]; 50 mpk p.o.): 24 mm of Hg
- MBP (fall in mean blood pressure) ([3]; 100 mpk p.o.): 59 mm of Hg

Compound: CCOC(=O)c1c(OC)c2cc(C)ccc2n(Cc2ccccc2)c1=O [Compound 7, 1-benzyl-3-ethoxycarbonyl-4-methoxy-6-methyl-2(1H)-quinolinone]
- CC50 at 24 h [1]: 37 µg/mL (≈ 105 µM)
- IC50 (HSV-2 (strain MS); Human alphaherpesvirus 2, HeLa, read-out: Anti-HSV activity, HSV-β-GAL assay IC50): 3 µg/mL (≈ 8.54 µM)
- pIC50 ([2]; Table VII): 5.10
- MBP (fall in mean blood pressure) ([3]; Table VII, at 25 mpk (P.O.)): 0 mm Hg
